Key:
Assay in all cases: relative viability (nuclei count vs DMSO), 5 days (fraction); higher = more cells survive
[1] = compound: CN(C)CC1=CC(=CC=C1)N=C(C2=CC=CC=C2)C3=C(NC4=C3C=CC(=C4)C(=O)N(C)C)O + Nc1ncn([C@H]2C[C@H](O)[C@@H](CO)O2)c(=O)n1 [Decitabine] (partner 2 µM)
In short: (§1)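 For relative viability, nuclei counts in treated wells were divided by those in vehicle wells. Lung cancer cell lines had been pin-tool dosed in 1536-well plates the day after seeding and cultured for 5 days, then fixed and stained in one step (final 0.05% Triton X-100, 1% formaldehyde, 1 ug/ml Hoechst) and imaged at 4×. Doses were one drug alone or a fixed anchor-drug dose plus five library-drug doses (not always all listed) in √10 steps, and values are duplicate-plate medians.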

[2] = compound: CN(C)CC1=CC(=CC=C1)N=C(C2=CC=CC=C2)C3=C(NC4=C3C=CC(=C4)C(=O)N(C)C)O + Cc1cc(Nc2cc(N3CCN(C)CC3)nc(Sc3ccc(NC(=O)C4CC4)cc3)n2)n[nH]1 [Tozasertib] (partner 0.1 µM)
In short: as §1

[3] = compound: CN(C)CC1=CC(=CC=C1)N=C(C2=CC=CC=C2)C3=C(NC4=C3C=CC(=C4)C(=O)N(C)C)O + CC(C)C[C@H](NC(=O)[C@H](Cc1ccccc1)NC(=O)c1cnccn1)B(O)O [Bortezomib] (partner 0.002 µM)
In short: as §1

[4] = compound: CN(C)CC1=CC(=CC=C1)N=C(C2=CC=CC=C2)C3=C(NC4=C3C=CC(=C4)C(=O)N(C)C)O + NC(=O)Nc1cc(-c2cccc(F)c2)sc1C(=O)N[C@H]1CCCNC1 [AZD7762] (partner 0.2 µM)
In short: as §1

Cell Line: NCI-H1915
- relative viability ([1]; first compound 0.08 µM): 0.251
- relative viability ([1]; first compound 0.253 µM): 0.274
- relative viability ([1]; first compound 0.8 µM): 0.271
- relative viability ([1]; first compound 2.53 µM): 0.255
- relative viability ([1]; first compound 8 µM): 0.247
- relative viability ([2]; first compound 0.08 µM): 0.474
- relative viability ([2]; first compound 0.253 µM): 0.409
- relative viability ([2]; first compound 0.8 µM): 0.432
- relative viability ([2]; first compound 2.53 µM): 0.407
- relative viability ([2]; first compound 8 µM): 0.414
- relative viability ([3]; first compound 0.08 µM): 0.976
- relative viability ([3]; first compound 0.253 µM): 1.02
- relative viability ([3]; first compound 0.8 µM): 0.985
- relative viability ([3]; first compound 2.53 µM): 0.923
- relative viability ([3]; first compound 8 µM): 0.956
- relative viability ([4]; first compound 0.08 µM): 0.704
- relative viability ([4]; first compound 0.253 µM): 0.729
- relative viability ([4]; first compound 0.8 µM): 0.756
- relative viability ([4]; first compound 2.53 µM): 0.699
- relative viability ([4]; first compound 8 µM): 0.578

Cell Line: NCI-H2126
- relative viability ([1]; first compound 0.08 µM): 0.568
- relative viability ([1]; first compound 0.253 µM): 0.602
- relative viability ([1]; first compound 0.8 µM): 0.598
- relative viability ([1]; first compound 2.53 µM): 0.606
- relative viability ([1]; first compound 8 µM): 0.633
- relative viability ([2]; first compound 0.08 µM): 0.961
- relative viability ([2]; first compound 0.253 µM): 0.849
- relative viability ([2]; first compound 0.8 µM): 0.856
- relative viability ([2]; first compound 2.53 µM): 0.825
- relative viability ([2]; first compound 8 µM): 0.837
- relative viability ([3]; first compound 0.08 µM): 1.14
- relative viability ([3]; first compound 0.253 µM): 1.08
- relative viability ([3]; first compound 0.8 µM): 1.13
- relative viability ([3]; first compound 2.53 µM): 1.07
- relative viability ([3]; first compound 8 µM): 1.1
- relative viability ([4]; first compound 0.08 µM): 0.974
- relative viability ([4]; first compound 0.253 µM): 0.96
- relative viability ([4]; first compound 0.8 µM): 0.931
- relative viability ([4]; first compound 2.53 µM): 0.943
- relative viability ([4]; first compound 8 µM): 0.976

Cell Line: LCLC-103H
- relative viability ([1]; first compound 0.08 µM): 0.785
- relative viability ([1]; first compound 0.253 µM): 0.725
- relative viability ([1]; first compound 0.8 µM): 0.723
- relative viability ([1]; first compound 2.53 µM): 0.739
- relative viability ([1]; first compound 8 µM): 0.641
- relative viability ([2]; first compound 0.08 µM): 0.455
- relative viability ([2]; first compound 0.253 µM): 0.524
- relative viability ([2]; first compound 0.8 µM): 0.551
- relative viability ([2]; first compound 2.53 µM): 0.516
- relative viability ([2]; first compound 8 µM): 0.509
- relative viability ([3]; first compound 0.08 µM): 1.14
- relative viability ([3]; first compound 0.253 µM): 1.09
- relative viability ([3]; first compound 0.8 µM): 0.976
- relative viability ([3]; first compound 2.53 µM): 0.91
- relative viability ([3]; first compound 8 µM): 0.979
- relative viability ([4]; first compound 0.08 µM): 0.686
- relative viability ([4]; first compound 0.253 µM): 0.838
- relative viability ([4]; first compound 0.8 µM): 0.794
- relative viability ([4]; first compound 2.53 µM): 0.666
- relative viability ([4]; first compound 8 µM): 0.645

Cell Line: HARA
- relative viability ([1]; first compound 0.08 µM): 0.452
- relative viability ([1]; first compound 0.253 µM): 0.595
- relative viability ([1]; first compound 0.8 µM): 0.537
- relative viability ([1]; first compound 2.53 µM): 0.554
- relative viability ([1]; first compound 8 µM): 0.443
- relative viability ([2]; first compound 0.08 µM): 0.11
- relative viability ([2]; first compound 0.253 µM): 0.125
- relative viability ([2]; first compound 0.8 µM): 0.0998
- relative viability ([2]; first compound 2.53 µM): 0.108
- relative viability ([2]; first compound 8 µM): 0.0768
- relative viability ([3]; first compound 0.08 µM): 1.06
- relative viability ([3]; first compound 0.253 µM): 1.1
- relative viability ([3]; first compound 0.8 µM): 1.06
- relative viability ([3]; first compound 2.53 µM): 1.02
- relative viability ([3]; first compound 8 µM): 1.05
- relative viability ([4]; first compound 0.08 µM): 0.296
- relative viability ([4]; first compound 0.253 µM): 0.351
- relative viability ([4]; first compound 0.8 µM): 0.155
- relative viability ([4]; first compound 2.53 µM): 0.258
- relative viability ([4]; first compound 8 µM): 0.324

Cell Line: NCI-H727
- relative viability ([1]; first compound 0.253 µM): 0.817
- relative viability ([1]; first compound 0.8 µM): 0.841
- relative viability ([1]; first compound 2.53 µM): 1.09
- relative viability ([1]; first compound 8 µM): 0.864
- relative viability ([2]; first compound 0.08 µM): 0.361
- relative viability ([2]; first compound 0.253 µM): 0.721
- relative viability ([2]; first compound 0.8 µM): 0.608
- relative viability ([2]; first compound 2.53 µM): 0.647
- relative viability ([2]; first compound 8 µM): 0.486
- relative viability ([3]; first compound 0.08 µM): 0.872
- relative viability ([3]; first compound 0.253 µM): 0.764
- relative viability ([3]; first compound 0.8 µM): 0.786
- relative viability ([3]; first compound 2.53 µM): 0.739
- relative viability ([3]; first compound 8 µM): 0.764
- relative viability ([4]; first compound 0.253 µM): 0.546
- relative viability ([4]; first compound 0.8 µM): 0.577
- relative viability ([4]; first compound 2.53 µM): 0.867
- relative viability ([4]; first compound 8 µM): 0.583

Cell Line: LOU-NH91
- relative viability ([1]; first compound 0.08 µM): 0.781
- relative viability ([1]; first compound 0.253 µM): 0.822
- relative viability ([1]; first compound 0.8 µM): 0.757
- relative viability ([1]; first compound 2.53 µM): 0.803
- relative viability ([1]; first compound 8 µM): 0.818
- relative viability ([2]; first compound 0.08 µM): 0.68
- relative viability ([2]; first compound 0.253 µM): 0.673
- relative viability ([2]; first compound 0.8 µM): 0.54
- relative viability ([2]; first compound 2.53 µM): 0.642
- relative viability ([2]; first compound 8 µM): 0.629
- relative viability ([3]; first compound 0.08 µM): 0.493
- relative viability ([3]; first compound 0.253 µM): 0.472
- relative viability ([3]; first compound 0.8 µM): 0.447
- relative viability ([3]; first compound 2.53 µM): 0.533
- relative viability ([3]; first compound 8 µM): 0.472
- relative viability ([4]; first compound 0.08 µM): 0.762
- relative viability ([4]; first compound 0.253 µM): 0.801
- relative viability ([4]; first compound 0.8 µM): 0.713
- relative viability ([4]; first compound 2.53 µM): 0.719
- relative viability ([4]; first compound 8 µM): 0.703

Cell Line: LXF-289
- relative viability ([1]; first compound 0.08 µM): 0.343
- relative viability ([1]; first compound 0.253 µM): 0.368
- relative viability ([1]; first compound 0.8 µM): 0.366
- relative viability ([1]; first compound 2.53 µM): 0.384
- relative viability ([1]; first compound 8 µM): 0.374
- relative viability ([2]; first compound 0.08 µM): 0.174
- relative viability ([2]; first compound 0.253 µM): 0.19
- relative viability ([2]; first compound 0.8 µM): 0.137
- relative viability ([2]; first compound 2.53 µM): 0.159
- relative viability ([2]; first compound 8 µM): 0.197
- relative viability ([3]; first compound 0.08 µM): 1
- relative viability ([3]; first compound 0.253 µM): 0.888
- relative viability ([3]; first compound 0.8 µM): 0.993
- relative viability ([3]; first compound 2.53 µM): 0.927
- relative viability ([3]; first compound 8 µM): 0.939
- relative viability ([4]; first compound 0.08 µM): 1.12
- relative viability ([4]; first compound 0.253 µM): 1.05
- relative viability ([4]; first compound 0.8 µM): 1.11
- relative viability ([4]; first compound 2.53 µM): 0.894
- relative viability ([4]; first compound 8 µM): 1.08

Cell Line: NCI-H1666
- relative viability ([1]; first compound 0.08 µM): 0.694
- relative viability ([1]; first compound 0.253 µM): 0.715
- relative viability ([1]; first compound 0.8 µM): 0.68
- relative viability ([1]; first compound 2.53 µM): 0.769
- relative viability ([1]; first compound 8 µM): 0.744
- relative viability ([2]; first compound 0.08 µM): 0.642
- relative viability ([2]; first compound 0.253 µM): 0.59
- relative viability ([2]; first compound 0.8 µM): 0.675
- relative viability ([2]; first compound 2.53 µM): 0.603
- relative viability ([2]; first compound 8 µM): 0.868
- relative viability ([3]; first compound 0.08 µM): 0.865
- relative viability ([3]; first compound 0.253 µM): 0.945
- relative viability ([3]; first compound 0.8 µM): 0.989
- relative viability ([3]; first compound 2.53 µM): 0.976
- relative viability ([3]; first compound 8 µM): 0.816
- relative viability ([4]; first compound 0.08 µM): 0.908
- relative viability ([4]; first compound 0.253 µM): 0.857
- relative viability ([4]; first compound 0.8 µM): 0.847
- relative viability ([4]; first compound 2.53 µM): 0.764
- relative viability ([4]; first compound 8 µM): 0.852

Cell Line: NCI-H441
- relative viability ([1]; first compound 0.08 µM): 0.248
- relative viability ([1]; first compound 0.253 µM): 0.282
- relative viability ([1]; first compound 0.8 µM): 0.282
- relative viability ([1]; first compound 2.53 µM): 0.237
- relative viability ([1]; first compound 8 µM): 0.221
- relative viability ([2]; first compound 0.08 µM): 0.625
- relative viability ([2]; first compound 0.253 µM): 0.603
- relative viability ([2]; first compound 0.8 µM): 0.67
- relative viability ([2]; first compound 2.53 µM): 0.634
- relative viability ([2]; first compound 8 µM): 0.588
- relative viability ([3]; first compound 0.08 µM): 0.572
- relative viability ([3]; first compound 0.253 µM): 0.449
- relative viability ([3]; first compound 0.8 µM): 0.538
- relative viability ([3]; first compound 2.53 µM): 0.511
- relative viability ([3]; first compound 8 µM): 0.331
- relative viability ([4]; first compound 0.08 µM): 1.19
- relative viability ([4]; first compound 0.253 µM): 1.06
- relative viability ([4]; first compound 0.8 µM): 1
- relative viability ([4]; first compound 2.53 µM): 1.2
- relative viability ([4]; first compound 8 µM): 1.06

Cell Line: ChaGo-K-1
- relative viability ([1]; first compound 0.08 µM): 0.524
- relative viability ([1]; first compound 0.253 µM): 0.516
- relative viability ([1]; first compound 0.8 µM): 0.523
- relative viability ([1]; first compound 2.53 µM): 0.418
- relative viability ([1]; first compound 8 µM): 0.485
- relative viability ([2]; first compound 0.08 µM): 0.235
- relative viability ([2]; first compound 0.253 µM): 0.25
- relative viability ([2]; first compound 0.8 µM): 0.217
- relative viability ([2]; first compound 2.53 µM): 0.22
- relative viability ([2]; first compound 8 µM): 0.213
- relative viability ([3]; first compound 0.08 µM): 0.986
- relative viability ([3]; first compound 0.253 µM): 1.1
- relative viability ([3]; first compound 0.8 µM): 1.03
- relative viability ([3]; first compound 8 µM): 1.12
- relative viability ([4]; first compound 0.08 µM): 0.832
- relative viability ([4]; first compound 0.253 µM): 0.824
- relative viability ([4]; first compound 0.8 µM): 0.902
- relative viability ([4]; first compound 2.53 µM): 0.822
- relative viability ([4]; first compound 8 µM): 0.896

From the supplement of paper PMC10307832
